Tested on: lashes and adjacent hairs
Test: Observation of lashes and adjacent hairs in glaucoma patients treated in one eye
Type: in vivo
Text: In the course of treating patients having glaucoma, treatment may only be appropriate in one eye. […] The lash appearance on the lids of the treated eyes would have appeared quite attractive if it represented a bilateral phenomenon. As a result of its asymmetric nature, the long lashes on one side could be construed as disturbing from a cosmetic standpoint. A systemic examination was preformed as a result of the asymmetric phenomenon. It soon became apparent that this altered appearance was not an isolated finding. […] Definite differences could be identified to varying degrees in the lashes and adjacent hairs of all patients who were taking the drug on a unilateral basis for longer than 6 months.
The changes in the lashes were apparent on gross inspection in several patients once attention was focused on the issue. In those with light colored hair and lashes, the differences were only seen easily with the aid of the high magnification and lighting capabilities of the slit lamp biomicroscope. In the course of glaucoma follow-up examination, attention is generally immediately focused on the eye itself. As a result of the high power magnification needed only one eye is seen at a time and the eye is seen at a high enough power that the lashes are not in focus. […]

Question: For `CCNC(=O)CCC/C=C\C[C@@H]1[C@@H](/C=C/[C@@H](O)CCc2ccccc2)[C@H](O)C[C@@H]1O` [bimatoprost], which “lash appearance in the treated eye versus the non-treated eye” value (glaucoma patient treated in one eye only) is on record?
Answer: The value was “longer, thicker, and fuller”.

Question: And the “hair growth in treated versus control areas, multiple parameters of hair appearance” value (many subjects, unilateral treatment)?
Answer: Its value is “hair growth is stimulated”.

Reference: US8263593B2, “Therapeutic compounds” (Allergan, Inc., priority 2008, dated 2012)
